Data set [1] has as its system A375 human malignant melanoma cells. Put plainly: Cytophototoxicity test (CCK-8) under white light. The format is cell-based. The following applies: A-375, 0.5 h, white light 400-700 nm, about 6.5 mW/cm^2, 30 minutes, read-out: median lethal concentration IC50. On the procedure: (§1) The cells used in the experiment included HeLa human cervical cancer cells, HepG2 human liver cancer cells, A375 human malignant melanoma cells, MCF7 human breast cancer cells, and HCT 116 human colon cancer cells. The cells were cultured in DMEM complete medium supplemented with 10% inactivated fetal bovine serum and 1% penicillin-streptomycin at 37° C. under the atmosphere of 5% carbon dioxide.
(§2) After trypsinized, the subculture HeLa cells were dispersed in the medium at appropriate concentration. Then, the dispersed HeLa cells were seeded into a poly-D-lysine modified flat-bottom 96-well plate, so that the amount of medium and the number of cells in each well were 200 µL and about 10^4, respectively, except a group of wells containing medium free of cells for blank control. After culturing the cells in the dark for 24 hours, the medium was removed, and 100 µL of fresh medium and 100 µL of pre-prepared medium solution containing molecule 6 synthesised in Example 6 were added, and then the sample was diluted to a gradient concentration of 0.1-5 µM. After culturing in the dark for another 24 hours, the medium was removed, and each well was rinsed 3 times with PBS (pH=7.4). 100µL of PBS buffer was added to each well, and irradiated
(§3) by white light (400-700 nm) with the same light intensity (about 6.5 mW/cm^2) under bromo-tungsten lamp for 30 minutes. The PBS in each well was removed and replaced with 200 µL of fresh medium to continue culturing for 24 hours. After that, the medium was removed and the wells were rinsed 3 times with PBS. Then 100 µL of 10% CCK-8 reagent (Cell Counting Kit-8) formulated with medium was added into each well to culture the cells for 2 hours. Meanwhile, 2-(2-methoxy-4-nitrophenyl)-3-(4-nitrophenyl)-5-(2,4-disulfonic acid benzene)-2H-[…] monosodium salt (WST-8) can be reduced by living cells together with electronic coupling reagents to yield a yellow product of formazan, accordingly changing the absorbance of the solution at 450 nm, and there was a direct proportional relationship between the change level and the number of living cells. The absorbance change of each well at 450 nm was measued by a microplate reader, and the cell survival rates at various culture concentrations were calculated according to the following equation: […]
(§4) wherein CV refers to the cell survival rate; As, Ac and Ab refer to the absorbance of the cells cultured with the compound, the absorbance of the cells cultured without the compound and the absorbance of the blank control, respectively.
(§5) The median lethal concentrations IC50 of molecule 6 in different cell lines were calculated according to the cell survival rates at various culture concentrations, and the results were shown as follows: […]

Data set [2] deals with HCT 116 human colon cancer cells. Put plainly: Cytophototoxicity test (CCK-8) under white light. It counts as cell-based. The following applies: HCT-116, 0.5 h, HCT116, white light 400-700 nm, about 6.5 mW/cm^2, 30 minutes, read-out: median lethal concentration IC50. On the procedure:
as §1, §2, §3, §4, §5

Data set [3] concerns HeLa human cervical cancer cells. Put plainly: Cytophototoxicity test (CCK-8) under white light. It counts as cell-based. The following applies: 24 h incubation in the dark, white light 400-700 nm, about 6.5 mW/cm^2, 30 minutes, CCK-8 after 24 hours, read-out: median lethal concentration IC50. On the procedure: as §1, §2, §3, §4, §5
For data set [4], the system named is HepG2 human liver cancer cells. As to the kind of experiment: Cytophototoxicity test (CCK-8) under white light. It counts as cell-based. The settings on record: 0.5 h, white light 400-700 nm, about 6.5 mW/cm^2, 30 minutes, read-out: median lethal concentration IC50. The protocol: as §1, §2, §3, §4, §5
In data set [5] the test system is MCF7 human breast cancer cells. As to the kind of experiment: Cytophototoxicity test (CCK-8) under white light. It counts as cell-based. The following applies: 0.5 h, white light 400-700 nm, about 6.5 mW/cm^2, 30 minutes, read-out: median lethal concentration IC50. On the procedure:
as §1, §2, §3, §4, §5

The subject of data set [6] is A375 human malignant melanoma cells. As to the kind of experiment: Animal test of photodynamic therapy, subcutaneous tumor model. The format is in vivo, BALB/C nude mice. The settings on record: skin application, 10 mg·kg^-1, light 400-700 nm, 2 weeks, FIG. 2. On the procedure: BALB/C nude mice, which were 4-5 weeks old, females, 16-25 grams, were used in the in vivo experiment. Each mouse was inoculated with 100ul (5×10^6) of A375 human malignant melanoma cells subcutaneously in the right scapula, and the experiment was carried out two weeks later.
The nude mice were randomly individed to control group and skin application group with 6 mice in each group. The control group was only irradiated with light (tungsten lamp, 400-700 nm, 6.5 mW/cm^2) without administration, and the 1 mM/20 ul aqueous solution of molecule 6 was administrated to the skin application group in an amount of 10 mg·kg^-1 based on the weights of the nude mice. After administrated, the animals were protected from light for 24 hours, and then were each individually irradiated on their tumor sites for 30 minutes a day for consecutive 3 days. The nude mice were not protected from light after the treatment, and were took care in a breeding cage to observe the side effects such as skin phototoxicity appeared on each group of nude mice. After irradiated, the weights of nude mice were measured and their tumor volume were determined with vernier calipers every two days. After 2 weeks of treatment, the lumps were peeled off and weighed.

Each structure is given as a SMILES string.

Consider `C[N+](C)(C)c1c(F)c(F)c(-c2c3nc(c(-c4c(F)c(F)c([N+](C)(C)C)c(F)c4F)c4ccc([nH]4)c4c(nc5oc6c(F)c([N+](C)(C)C)c(F)c(F)c6c5c5ccc2[nH]5)oc2c(F)c([N+](C)(C)C)c(F)c(F)c24)C=C3)c(F)c1F` [molecule 6], for which the IC50 in data set [1] was found to be 4750 ± 500 nM; in data set [2], 1520 ± 200 nM; in data set [3], 2690 ± 100 nM; in data set [4], 800 ± 100 nM; in data set [5] it was 850 ± 100 nM. Moreover, the “change of tumor size (growth of subcutaneous tumors)” value in data set [6] (6.5 mW/cm^2, 30 minutes a day for 3 days) was “effectively inhibit the growth of subcutaneous tumors”. In addition, the “change of weight of the mice” value in data set [6] (30 minutes a day for 3 days) is on record as “no significant decrease”.

Source of the values: US20230348486A1, “NEAR-INFRARED EMITTING PORPHYRIN COMPOUND AND PREPARATION METHOD AND USE THEREOF” (PEKING UNIVERSITY, priority 2020, published 2023).
